This passage reports IC50 results from PMC3445454, “Broad and Cross-Clade CD4^+ T-Cell Responses Elicited by a DNA Vaccine Encoding Highly Conserved and Promiscuous HIV-1 M-Group Consensus Peptides” (PLoS ONE, 2012).

Like-named read-outs stand apart in the source and are kept apart here. Ends that are not written are not given here.

One assay deals with HLA-DR DRB1*16:02 (Homo sapiens, UniProt P01903+P01911, A100R/F76Y/I96L/Q99D/V115G). The experiment in a line: biochemical. It is filed as binding.
Another assay has as its target HLA-DR DRB1*04:01 (Homo sapiens, UniProt P01903+P01911, A100K/A169T/F76Y/I96L/K127E/L162R/M171V/N62H/P40V/Q125Y/R42H/S133A/S149N/S66Y/V115G/V209L/W38E). The experiment in a line: biochemical. It is filed as binding.
The mark [1] stands for this setting: read-out: Binding capacity/IC50 (nM) DRB1*16:02.
Setting [2] is: read-out: Binding capacity/IC50 (nM) DRB1*04:01.

Consider `CSCC[C@H](NC(=O)[C@H](CCCCN)NC(=O)[C@H](C)NC(=O)[C@H](Cc1ccc(O)cc1)NC(=O)[C@H](CCCCN)NC(=O)CNC(=O)[C@@H](NC(=O)[C@H](CCCCN)NC(=O)[C@H](CC(C)C)NC(=O)[C@H](CC(N)=O)NC(=O)[C@H](CCCCN)NC(=O)[C@H](Cc1ccccc1)NC(=O)[C@@H]1CCCN1C(=O)[C@H](CCC(=O)O)NC(=O)[C@@H](N)CCC(N)=O)[C@@H](C)O)C(N)=O` [RT(343-357)], for which the IC50 at HLA-DR DRB1*16:02 was 464 nM; against HLA-DR DRB1*04:01, 591 nM.
For `CC[C@H](C)[C@H](NC(=O)[C@H](CCCCN)NC(=O)[C@H](CCC(N)=O)NC(=O)[C@@H](NC(=O)[C@H](C)NC(=O)[C@H](CCC(=O)O)NC(=O)[C@@H](N)[C@@H](C)O)C(C)C)C(=O)N[C@@H](C)C(=O)N[C@H](C(=O)N[C@@H](CCC(=O)O)C(=O)N[C@@H](CO)C(=O)N[C@H](C(=O)N[C@H](C(=O)N[C@H](C(=O)N[C@@H](Cc1c[nH]c2ccccc12)C(=O)NCC(=O)N[C@@H](CCCCN)C(=O)N[C@H](C(=O)N1CCC[C@H]1C(=O)N[C@@H](CCCCN)C(=O)N[C@@H](Cc1ccccc1)C(=O)N[C@@H](CCCNC(=N)N)C(=O)N[C@@H](CC(C)C)C(N)=O)[C@@H](C)O)[C@@H](C)CC)C(C)C)[C@@H](C)CC)[C@@H](C)O` [RT(369-391)], the IC50 at HLA-DR DRB1*16:02 (setting [1]) came out at 2130 nM; on HLA-DR DRB1*04:01 (setting [2]), 146 nM.
Turning to `CC(C)C[C@H](NC(=O)[C@H](CCCCN)NC(=O)[C@@H](NC(=O)[C@H](CC(C)C)NC(=O)[C@@H]1CCCN1C(=O)[C@@H]1CCCN1C(=O)[C@@H](NC(=O)[C@H](CC(N)=O)NC(=O)[C@@H](NC(=O)[C@H](Cc1ccccc1)NC(=O)[C@H](CCC(=O)O)NC(=O)[C@H](Cc1c[nH]c2ccccc12)NC(=O)[C@@H](N)CCC(=O)O)C(C)C)[C@@H](C)O)C(C)C)C(=O)N[C@@H](Cc1c[nH]c2ccccc12)C(=O)N[C@@H](Cc1ccc(O)cc1)C(N)=O` [RT(413-427)], the IC50 on HLA-DR DRB1*16:02 came to 10 nM; against HLA-DR DRB1*04:01, 42 nM.
Regarding `CC[C@H](C)[C@H](NC(=O)[C@@H]1CCCN1C(=O)[C@H](CCC(=O)O)NC(=O)[C@@H](N)CCCCN)C(=O)N[C@H](C(=O)NCC(=O)N[C@@H](C)C(=O)N[C@@H](CCC(=O)O)C(=O)N[C@H](C(=O)N[C@@H](Cc1ccccc1)C(=O)N[C@@H](Cc1ccc(O)cc1)C(=O)N[C@H](C(=O)N[C@@H](CC(=O)O)C(=O)NCC(=O)N[C@@H](C)C(N)=O)C(C)C)[C@@H](C)O)C(C)C` [RT(431-445)], the IC50 at HLA-DR DRB1*16:02 (setting [1]) came out at 80 nM; at HLA-DR DRB1*04:01 (setting [2]), 23 nM.
Regarding `CC[C@H](C)[C@H](NC(=O)CNC(=O)[C@H](CCCCN)NC(=O)[C@H](Cc1c[nH]cn1)NC(=O)[C@H](C)NC(=O)[C@@H]1CCCN1C(=O)[C@@H](NC(=O)[C@H](Cc1c[nH]c2ccccc12)NC(=O)[C@H](CO)NC(=O)[C@H](CC(C)C)NC(=O)[C@H](Cc1ccc(O)cc1)NC(=O)[C@@H](NC(=O)[C@H](CCCCN)NC(=O)[C@H](CCC(=O)O)NC(=O)[C@@H](N)CCCCN)C(C)C)C(C)C)C(=O)NCC(=O)NCC(=O)N[C@@H](CC(N)=O)C(=O)N[C@@H](CCC(=O)O)C(N)=O` [RT(528-546)], the IC50 on HLA-DR DRB1*04:01 (setting [2]) stood at 68 nM.
In the case of `CC[C@H](C)[C@H](NC(=O)[C@H](Cc1ccc(O)cc1)NC(=O)CNC(=O)[C@H](CO)NC(=O)[C@H](C)NC(=O)[C@@H](NC(=O)[C@H](Cc1c[nH]cn1)NC(=O)[C@@H](NC(=O)[C@H](C)NC(=O)[C@@H](NC(=O)[C@H](CC(C)C)NC(=O)[C@@H](NC(=O)[C@@H](NC(=O)[C@H](CCCCN)NC(=O)CNC(=O)[C@@H](N)CCC(=O)O)[C@@H](C)CC)[C@@H](C)CC)C(C)C)C(C)C)C(C)C)C(=O)N[C@@H](CCC(=O)O)C(N)=O` [integrase(69-85)], the IC50 turned out to be 167 nM at HLA-DR DRB1*16:02 (setting [1]) and 7.6 nM at HLA-DR DRB1*04:01 (setting [2]).
The matching figures for `CC[C@H](C)[C@H](NC(=O)[C@@H](NC(=O)[C@H](CCCCN)NC(=O)[C@@H](NC(=O)[C@@H]1CCCN1C(=O)[C@H](Cc1c[nH]c2ccccc12)NC(=O)[C@H](CCCNC(=N)N)NC(=O)CNC(=O)[C@H](C)NC(=O)[C@H](CC(C)C)NC(=O)[C@H](CCCCN)NC(=O)[C@H](CC(C)C)NC(=O)[C@@H](NC(=O)[C@H](Cc1ccccc1)NC(=O)[C@H](Cc1ccc(O)cc1)NC(=O)[C@H](C)NC(=O)[C@@H](NC(=O)[C@@H](N)CCC(=O)O)[C@@H](C)O)[C@@H](C)CC)C(C)C)C(C)C)C(N)=O` [integrase(96-113)]: 106 nM and 1770 nM.
For `CC[C@H](C)[C@H](NC(=O)[C@H](CCCCN)NC(=O)[C@@H](NC(=O)[C@@H](NC(=O)[C@@H](N)CCC(N)=O)[C@@H](C)CC)[C@@H](C)O)C(=O)N[C@@H](CCC(N)=O)C(=O)N[C@@H](CC(N)=O)C(=O)N[C@@H](Cc1ccccc1)C(=O)N[C@@H](CCCNC(=N)N)C(=O)N[C@H](C(=O)N[C@@H](Cc1ccc(O)cc1)C(=O)N[C@@H](Cc1ccc(O)cc1)C(=O)N[C@@H](CCCNC(=N)N)C(=O)N[C@@H](CC(=O)O)C(=O)N[C@@H](CO)C(=O)N[C@@H](CCCNC(=N)N)C(=O)N[C@@H](CC(=O)O)C(=O)N1CCC[C@H]1C(=O)N[C@H](C(=O)N[C@@H](Cc1c[nH]c2ccccc12)C(N)=O)[C@@H](C)CC)C(C)C` [integrase(216-235)], the IC50 at HLA-DR DRB1*16:02 (setting [1]) worked out at 7.1 nM; at HLA-DR DRB1*04:01 (setting [2]), 203 nM.
`CC[C@H](C)[C@H](NC(=O)[C@H](C)NC(=O)[C@H](CCCCN)NC(=O)[C@H](CCCCN)NC(=O)CNC(=O)[C@H](CS)NC(=O)[C@@H](NC(=O)[C@H](CCC(=O)O)NC(=O)[C@@H](NC(=O)[C@H](CC(C)C)NC(=O)[C@@H](NC(=O)[C@H](CCC(N)=O)NC(=O)[C@H](CC(=O)O)NC(=O)[C@H](Cc1ccc(O)cc1)NC(=O)[C@H](CCC(N)=O)NC(=O)[C@H](CCCNC(=N)N)NC(=O)[C@@H](NC(=O)[C@H](CCCCN)NC(=O)[C@@H](NC(=O)[C@@H](N)Cc1ccccc1)[C@@H](C)CC)C(C)C)[C@@H](C)CC)[C@@H](C)CC)[C@@H](C)CC)C(=O)NCC(=O)N[C@H](C(=O)N[C@H](C(N)=O)C(C)C)[C@@H](C)O` [protease(53-75)]: the IC50 on HLA-DR DRB1*16:02 was 388 nM; against HLA-DR DRB1*04:01 it was 675 nM.
The matching figures for `CC[C@H](C)[C@H](NC(=O)[C@H](C)NC(=O)[C@@H](N)CCC(=O)O)C(=O)N[C@H](C(=O)N[C@@H](CCCNC(=N)N)C(=O)N[C@H](C(=O)N[C@@H](CC(C)C)C(=O)N[C@@H](CCC(N)=O)C(=O)N[C@@H](CCC(N)=O)C(=O)N[C@@H](CC(C)C)C(=O)N[C@@H](CC(C)C)C(=O)N[C@@H](Cc1ccccc1)C(=O)N[C@H](C(=O)N[C@@H](Cc1c[nH]cn1)C(=O)N[C@@H](Cc1ccccc1)C(=O)N[C@@H](CCCNC(=N)N)C(=O)N[C@H](C(=O)NCC(=O)N[C@@H](CS)C(=O)N[C@@H](CCC(N)=O)C(=O)N[C@@H](Cc1c[nH]cn1)C(=O)N[C@@H](CO)C(=O)N[C@@H](CCCNC(=N)N)C(N)=O)[C@@H](C)CC)[C@@H](C)CC)[C@@H](C)CC)[C@@H](C)CC` [vpr(58-80)]: 588 nM and 361 nM.
Take DEELLKAVRIIKILYQSNP-NH2 [rev(9-27)]: the values for the IC50 on HLA-DR DRB1*16:02 (setting [1]) and at HLA-DR DRB1*04:01 (setting [2]) were 74 nM and 13 nM, respectively.
As to EAVRHFPRPWLHGL-NH2 [vpr(29-42)], the IC50 on HLA-DR DRB1*16:02 came out at 367 nM; against HLA-DR DRB1*04:01 it was 1290 nM.
As for “IRYPLTFGWCFKLVPVDPREVEEA-NH2 [nef(133-156)]”, at HLA-DR DRB1*16:02 (setting [1]), the IC50 worked out at 2740 nM.
Take IVALIIAIVVWTIV-NH2 [vpu(13-26)]: the IC50 at HLA-DR DRB1*16:02 (setting [1]) came out at 4360 nM; on HLA-DR DRB1*04:01 (setting [2]), 19600 nM.
As for “NYPIVQNLQGQMVHQAISPR-NH2 [p17(131-132)/p24(1-18)]”, the IC50 worked out at 68 nM on HLA-DR DRB1*16:02 (setting [1]) and 83 nM on HLA-DR DRB1*04:01 (setting [2]).
The matching figures for SEELRSLYNTVATLYCVHQ-NH2 [p17(72-90)]: 140 nM and 279 nM.
In turn, VGSLQYLALTALITPKK-NH2 [vif(142-158)] returned an IC50 against HLA-DR DRB1*04:01 of 6.4 nM.
In the case of “VVIQDNSDIKVVPRRKAKII-NH2 [integrase(249-268)]”, the values for the IC50 against HLA-DR DRB1*16:02 and against HLA-DR DRB1*04:01 were 500 nM and 2870 nM, respectively.
As to YAKMRSAHTNDVKQL-NH2 [RT(354-368)], the values for the IC50 on HLA-DR DRB1*16:02 (setting [1]) and at HLA-DR DRB1*04:01 (setting [2]) were 58 nM and 79 nM, respectively.
